Data reported in US11932624B2, “MDM2 degraders and uses thereof” (Kymera Therapeutics, Inc., priority 2020, dated 2024).

Test system: RS411 cells
Test: Cell Viability CTG Assay (CellTiter Glo) in RS411 cells
Format: cell-based
Details: Homo sapiens, RS4-11, 24 h, duration 1 day
Summary of the method: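 RS411 cells at 1000 cells/well were exposed to compound (top final 10 μM, 3-fold, 11 doses; 0.2% DMSO) at 37 °C, 5% CO2 for 1-4 days. Viability was read by CellTiter Glo luminescence after 10 min at RT. IC50 is reported as letter-code bins.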

| SMILES | IC50 [nM] |
| --- | --- |
| CN1[C@@H](C(=O)N[C@H]2CC[C@H](CN3CCC(C#Cc4ccc5c(c4)n(C)c(=O)n5C4CCC(=O)NC4=O)CC3)CC2)[C@H](c2cccc(Cl)c2F)[C@]2(C(=O)Nc3cc(Cl)ccc32)C12CCC(C)(C)CC2 (some centres unmarked) [I-123] | < 50 |
| CN1[C@@H](C(=O)N[C@H]2C[C@@](C)(O)C2)[C@H](c2cccc(Cl)c2F)[C@]2(C(=O)N(CCCCCCCC#Cc3ccc4c(c3)n(C)c(=O)n4C3CCC(=O)NC3=O)c3cc(Cl)ccc32)C12CCCCC2 (some centres unmarked) [I-124] | > 1000 |
| Cn1c(=O)n(C2CCC(=O)NC2=O)c2ccc(CCCCCNC[C@H]3CC[C@H](NC(=O)[C@@H]4NC5(CCCCC5)[C@@]5(C(=O)Nc6cc(Cl)ccc65)[C@H]4c4cccc(Cl)c4F)CC3)cc21 (some centres unmarked) [I-125] | < 50 |
| Cn1c(=O)n(C2CCC(=O)NC2=O)c2ccc(CCCCCNCc3ccc(NC(=O)[C@@H]4NC5(CCCCC5)[C@@]5(C(=O)Nc6cc(Cl)ccc65)[C@H]4c4cccc(Cl)c4F)cc3)cc21 (some centres unmarked) [I-126] | < 50 |
| C#CCCCCCCCC1N(c2ccc(C(=O)NC)cc2OC)C(=O)[C@H]2[C@H](c3cccc(Cl)c3F)[C@@](C#N)(c3ccc(Cl)cc3F)[C@H](CC(C)(C)C)N12 (stereo partly drawn) [I-127, 4-[(5S,6R,7S,7aR)-7-(3-chloro-2-fluoro-phenyl)-6-(4-chloro-2-fluoro-phenyl)-6-cyano-5-(2,2-dimethylpropyl)-3-non-8-ynyl-1-oxo-3,5,7,7a-tetrahydropyrrolo[1,2-c]imidazol-2-yl]-3-methoxy-N-methyl-benzamide] | > 1000 |
| C#CCCCCCCCN1C(=O)[C@@]2(c3ccc(Cl)cc31)[C@@H](c1cccc(Cl)c1F)[C@H](C(=O)N[C@H]1C[C@@](C)(O)C1)N(C)C21CCCCC1 [I-128, (3′R,4'S,5′R)-6″-chloro-4′-(3-chloro-2-fluorophenyl)-N-((1s,3S)-3-hydroxy-3-methylcyclobutyl)-1′-methyl-1″-(non-8-yn-1-yl)-2″-oxodispiro[cyclohexane-1,2′-pyrrolidine-3′,3″-indoline]-5′-carboxamide] | > 1000 |
| C#CCCCCCCCN1C(=O)[C@@]2(c3ccc(Cl)cc31)[C@@H](c1cccc(Cl)c1F)[C@H](C(=O)O)N(C)C21CCCCC1 [I-129, (3′R,4'S,5′R)-6″-chloro-4′-(3-chloro-2-fluorophenyl)-1′-methyl-1″-(non-8-yn-1-yl)-2″-oxodispiro[cyclohexane-1,2′-pyrrolidine-3′,3″-indoline]-5′-carboxylic acid] | > 1000 |
| CN1[C@@H](C(=O)NC23CCC(C(=O)N4CCC(C#Cc5ccc6c(c5)n(C)c(=O)n6C5CCC(=O)NC5=O)CC4)(CC2)CC3)[C@H](c2cccc(Cl)c2F)[C@]2(C(=O)Nc3cc(Cl)ccc32)C12CCCCC2 (stereo partly drawn) [I-130, (3′R,4'S,5′R)-6″-chloro-4′-(3-chloro-2-fluorophenyl)-N-(4-(4-((1-(2,6-dioxopiperidin-3-yl)-3-methyl-2-oxo-2,3-dihydro-1H-benzo[d]imidazol-5-yl)ethynyl)piperidine-1-carbonyl)bicyclo[2.2.2]octan-1-yl)-1′-methyl-2″-oxodispiro[cyclohexane-1,2′-pyrrolidine-3′,3″-indoline]-5′-carboxamide] | < 50 |
| CCN1[C@@H](C(=O)NC23CCC(CN(C)CCCCCc4ccc5c(c4)n(C)c(=O)n5C4CCC(=O)NC4=O)(CC2)CC3)[C@H](c2cccc(Cl)c2F)[C@]2(C(=O)Nc3cc(Cl)ccc32)C12CCCCC2 (stereo partly drawn) [I-131, (3′R,4'S,5′R)-6″-chloro-4′-(3-chloro-2-fluorophenyl)-N-(4-(((5-(1-(2,6-dioxopiperidin-3-yl)-3-methyl-2-oxo-2,3-dihydro-1H-benzo[d]imidazol-5-yl)pentyl)(methyl)amino)methyl)bicyclo[2.2.2]octan-1-yl)-1′-ethyl-2″-oxodispiro[cyclohexane-1,2′-pyrrolidine-3′,3″-indoline]-5′-carboxamide] | 50 to 100 |
| O=C1CCC(N2Cc3c(C#CC4CCN(C(=O)[C@H]5CC[C@H](NC(=O)[C@@H]6NC7(CCCCC7)[C@@]7(C(=O)Nc8cc(Cl)ccc87)[C@H]6c6cccc(Cl)c6F)CC5)CC4)cccc3C2=O)C(=O)N1 (some centres unmarked) [I-134] | < 50 |
| CC(C)(C)C[C@@H]1N[C@@H](C(=O)N[C@H]2CC[C@H](CN3CCC(C#Cc4ccn5c(N6CCC(=O)NC6=O)cnc5c4)CC3)CC2)[C@H](c2cccc(Cl)c2F)[C@@]1(C#N)c1ccc(Cl)cc1F [I-135] | > 1000 |
| Cn1c(=O)n(C2CCC(=O)NC2=O)c2ccc(C#CCCN3CCN(C(=O)[C@H]4CC[C@H](NC(=O)[C@@H]5NC6(CCCCC6)[C@@]6(C(=O)Nc7cc(Cl)ccc76)[C@H]5c5cccc(Cl)c5F)CC4)CC3)cc21 (some centres unmarked) [I-136] | < 50 |
| Cn1c(=O)n(C2CCC(=O)NC2=O)c2cccc(C3CCN(C(=O)[C@H]4CC[C@H](NC(=O)[C@@H]5NC6(CCC(C)(C)CC6)[C@@]6(C(=O)Nc7cc(Cl)ccc76)[C@H]5c5cccc(Cl)c5F)CC4)CC3)c21 (some centres unmarked) [I-137] | < 50 |
| Cn1c(=O)n(C2CCC(=O)NC2=O)c2ccc(CCC3CCN(CCNC(=O)[C@@H]4NC5(CCCCC5)[C@@]5(C(=O)Nc6cc(Cl)ccc65)[C@H]4c4cccc(Cl)c4F)CC3)cc21 (some centres unmarked) [I-138] | > 1000 |
| Cn1c(=O)n(C2CCC(=O)NC2=O)c2cccc(CN3CCC(OC4CCN(Cc5ccc(NC(=O)[C@@H]6NC7(CCCCC7)[C@@]7(C(=O)Nc8cc(Cl)ccc87)[C@H]6c6cccc(Cl)c6F)cc5)CC4)CC3)c21 (some centres unmarked) [I-139] | < 50 |
| Cn1c(=O)n(C2CCC(=O)NC2=O)c2cccc(C#CC3CCN(C[C@H]4CC[C@H](CNC(=O)[C@@H]5NC6(CCCCC6)[C@@]6(C(=O)Nc7cc(Cl)ccc76)[C@H]5c5cccc(Cl)c5F)CC4)CC3)c21 (some centres unmarked) [I-140] | 500 to 1000 |
| Cn1c(=O)n(C2CCC(=O)NC2=O)c2cccc(CCCN3CCN(CCCNC(=O)[C@@H]4NC5(CCCCC5)[C@@]5(C(=O)Nc6cc(Cl)ccc65)[C@H]4c4cccc(Cl)c4F)CC3)c21 (some centres unmarked) [I-141] | > 1000 |
| O=C1CCN(c2cncc3cc(C#CC4CCN(C[C@H]5CC[C@H](NC(=O)[C@@H]6NC7(CCCCC7)[C@@]7(C(=O)Nc8cc(Cl)ccc87)[C@H]6c6cccc(Cl)c6F)CC5)CC4)ccc23)C(=O)N1 [I-142] | 50 to 100 |

| SMILES | IC50 [nM] |
| --- | --- |
| O=C1CCC(N2Cc3c(C#CC4CCN(C(=O)C56CCC(NC(=O)[C@@H]7NC8(CCCCC8)[C@@]8(C(=O)Nc9cc(Cl)ccc98)[C@H]7c7cccc(Cl)c7F)(CC5)CC6)CC4)cccc3C2=O)C(=O)N1 (some centres unmarked) [I-143] | < 50 |
| O=C1CCN(c2cnc3cc(C4CCN(C(=O)c5ccc(NC(=O)[C@@H]6NC7(CCCCC7)[C@@]7(C(=O)Nc8cc(Cl)ccc87)[C@H]6c6cccc(Cl)c6F)cc5)CC4)ccn23)C(=O)N1 [I-144] | 50 to 100 |
| O=C1CCN(c2cncc3c(C#CC4CCN(C[C@H]5CC[C@H](NC(=O)[C@@H]6NC7(CCCCC7)[C@@]7(C(=O)Nc8cc(Cl)ccc87)[C@H]6c6cccc(Cl)c6F)CC5)CC4)cccc23)C(=O)N1 [I-146] | 100 to 500 |
| Cn1c(=O)n(C2CCC(=O)NC2=O)c2ccc(CCCN3CCN(C[C@H]4CC[C@H](NC(=O)[C@@H]5NC6(CCC(C)(C)CC6)[C@@]6(C(=O)Nc7cc(Cl)ccc76)[C@H]5c5ccnc(Cl)c5F)CC4)CC3)cc21 (some centres unmarked) [I-147] | < 50 |
| Cn1c(=O)n(C2CCC(=O)NC2=O)c2cccc(C#CC3CCN(C[C@H]4CC[C@H](NC(=O)[C@@H]5NC6(CCC(C)(C)CC6)[C@@]6(C(=O)Nc7cc(Cl)ccc76)[C@H]5c5ccnc(Cl)c5F)CC4)CC3)c21 (some centres unmarked) [I-148] | < 50 |
| Cn1c(=O)n(C2CCC(=O)NC2=O)c2ccc(C#CC3CCN(C[C@H]4CC[C@H](NC(=O)[C@@H]5NC6(CCC(C)(C)CC6)[C@@]6(C(=O)Nc7cc(Cl)ccc76)[C@H]5c5ccnc(Cl)c5F)CC4)CC3)cc21 (some centres unmarked) [I-149] | < 50 |
| O=C1CCN(c2cnc3c(C#CC4CCN(C[C@H]5CC[C@H](NC(=O)[C@@H]6NC7(CCCCC7)[C@@]7(C(=O)Nc8cc(Cl)ccc87)[C@H]6c6cccc(Cl)c6F)CC5)CC4)cccn23)C(=O)N1 [I-150] | < 50 |
| Cn1c(=O)n(C2CCC(=O)NC2=O)c2ccc(CCCCCNC(=O)[C@H]3CC[C@H](NC(=O)[C@@H]4NC5(CCC(C)(C)CC5)[C@@]5(C(=O)Nc6cc(Cl)ccc65)[C@H]4c4ccnc(Cl)c4F)CC3)cc21 (some centres unmarked) [I-151] | 100 to 500 |
| Cn1c(=O)n(C2CCC(=O)NC2=O)c2ccc(C(=O)CC3CCN(C[C@H]4CC[C@H](NC(=O)[C@@H]5NC6(CCOCC6)[C@@]6(C(=O)Nc7cc(Cl)ccc76)[C@H]5c5cccc(Cl)c5F)CC4)CC3)cc21 (some centres unmarked) [I-152] | 500 to 1000 |
| Cn1c(=O)n(C2CCC(=O)NC2=O)c2ccc(C#CC3CCN(C[C@H]4CC[C@H](NC(=O)[C@@H]5NC6(CCOCC6)[C@@]6(C(=O)Nc7cc(Cl)ccc76)[C@H]5c5cccc(Cl)c5F)CC4)CC3)cc21 (some centres unmarked) [I-153] | < 50 |
| Cn1c(=O)n(C2CCC(=O)NC2=O)c2ccc(CCN3CC4(CCN(C[C@H]5CC[C@H](NC(=O)[C@@H]6NC7(CCCCC7)[C@@]7(C(=O)Nc8cc(Cl)ccc87)[C@H]6c6cccc(Cl)c6F)CC5)CC4)C3)cc21 (some centres unmarked) [I-154] | < 50 |
| CC1(C)CCC2(CC1)N[C@@H](C(=O)N[C@H]1CC[C@H](CN3CCC(C#Cc4cccn5c(N6CCC(=O)NC6=O)cnc45)CC3)CC1)[C@H](c1ccnc(Cl)c1F)[C@]21C(=O)Nc2cc(Cl)ccc21 [I-155] | < 50 |
| CN1[C@@H](CN[C@H]2CC[C@H](C(=O)N3CCC(CCc4ccc5c(c4)n(C)c(=O)n5C4CCC(=O)NC4=O)CC3)CC2)[C@H](c2cccc(Cl)c2F)[C@]2(C(=O)Nc3cc(Cl)ccc32)C12CCCCC2 (some centres unmarked) [I-156] | > 1000 |
| Cn1c(=O)n(C2CCC(=O)NC2=O)c2ccc(CCCCCNC(=O)[C@@H]3CCC(NC(=O)[C@@H]4NC5(CCC(C)(C)CC5)[C@@]5(C(=O)Nc6cc(Cl)ccc65)[C@H]4c4ccnc(Cl)c4F)CO3)cc21 (some centres unmarked) [I-157] | < 50 |
| CN1[C@@H](C(=O)N[C@H]2CC[C@H](CN3CCC4(CC3)CN(CCc3ccc5c(c3)n(C)c(=O)n5C3CCC(=O)NC3=O)C4)CC2)[C@H](c2cccc(Cl)c2F)[C@]2(C(=O)Nc3cc(Cl)ccc32)C12CCCCC2 (some centres unmarked) [I-158] | < 50 |
| Cn1c(=O)n(C2CCC(=O)NC2=O)c2cccc(CCN3CC4(CCN(C[C@H]5CC[C@H](NC(=O)[C@@H]6NC7(CCCCC7)[C@@]7(C(=O)Nc8cc(Cl)ccc87)[C@H]6c6cccc(Cl)c6F)CC5)CC4)C3)c21 (some centres unmarked) [I-159] | < 50 |
| CN(CCCCCc1ccc2c(c1)n(C)c(=O)n2C1CCC(=O)NC1=O)Cc1ccc(NC(=O)[C@@H]2NC3(CCCCC3)[C@@]3(C(=O)Nc4cc(Cl)ccc43)[C@H]2c2cccc(Cl)c2F)c(F)c1 (some centres unmarked) [I-161] | < 50 |
